# Measurements from PubChem BioAssay (NCI).
#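 Cells were grown in 96-well plates and exposed to each compound for 48 hours at five concentrations; endpoints were interpolated linearly between bracketing concentrations, or set to the highest concentration if not reached. Abbreviation: GI50, concentration required for 50% inhibition of growth. TGI: concentration producing complete growth inhibition.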
# Experiments:
# Experiment in all cases: DTP human tumour cell line panel, 48 h
# MDA-MB-468 breast = tested on: MDA-MB-468 breast
# MDA-MB-435 = tested on: MDA-MB-435
# T-47D breast = tested on: T-47D breast
# SK-OV-3 ovarian = tested on: SK-OV-3 ovarian
# M14 melanoma = tested on: M14 melanoma
# SK-MEL-28 melanoma = tested on: SK-MEL-28 melanoma
# 786-0 renal = tested on: 786-0 renal
# CAKI-1 renal = tested on: CAKI-1 renal
# BT-549 breast = tested on: BT-549 breast
# A549 NSCLC = tested on: A549 NSCLC
# NCI-H226 lung = tested on: NCI-H226 lung
# TK-10 renal = tested on: TK-10 renal
# RPMI-8226 leukemia = tested on: RPMI-8226 leukemia
# NCI/ADR-RES ovarian = tested on: NCI/ADR-RES ovarian
# UACC-257 melanoma = tested on: UACC-257 melanoma
# HOP-92 NSCLC = tested on: HOP-92 NSCLC
# A498 renal = tested on: A498 renal
# SNB-19 CNS = tested on: SNB-19 CNS
# NCI-H522 lung = tested on: NCI-H522 lung
# HT29 colon = tested on: HT29 colon
# SF-268 CNS = tested on: SF-268 CNS
# UACC-62 melanoma = tested on: UACC-62 melanoma
# OVCAR-8 ovarian = tested on: OVCAR-8 ovarian
# SR leukemia = tested on: SR leukemia
# SK-MEL-2 melanoma = tested on: SK-MEL-2 melanoma
# RXF 393 renal = tested on: RXF 393 renal
# SNB-75 CNS = tested on: SNB-75 CNS
# MDA-MB-231 breast = tested on: MDA-MB-231 breast
# K-562 leukemia = tested on: K-562 leukemia
# SK-MEL-5 melanoma = tested on: SK-MEL-5 melanoma
# HL-60(TB) leukemia = tested on: HL-60(TB) leukemia
# CCRF-CEM leukemia = tested on: CCRF-CEM leukemia
# OVCAR-4 ovarian = tested on: OVCAR-4 ovarian
# MALME-3M melanoma = tested on: MALME-3M melanoma
# SN12C renal = tested on: SN12C renal
# HCC-2998 colon = tested on: HCC-2998 colon
# DU-145 prostate = tested on: DU-145 prostate
# KM12 colon = tested on: KM12 colon
# OVCAR-5 ovarian = tested on: OVCAR-5 ovarian
# PC-3 prostate = tested on: PC-3 prostate
# EKVX NSCLC = tested on: EKVX NSCLC
# SF-539 CNS = tested on: SF-539 CNS
# HS 578T breast = tested on: HS 578T breast
# UO-31 renal = tested on: UO-31 renal
# IGROV1 ovarian = tested on: IGROV1 ovarian
compound,measurement,setting,value
Cc1csc(Nc2nc(-c3cccc(Cl)c3)nc(C(Cl)(Cl)Cl)n2)n1,GI50,MDA-MB-468 breast,0.728 µM
same,TGI,MDA-MB-468 breast,2.18 µM
COc1cc(C(=O)N/N=C/c2cccc([N+](=O)[O-])c2)cc(OC)c1OC,GI50,MDA-MB-468 breast,2.77 µM
same,TGI,MDA-MB-468 breast,14 µM
C[C@]12CC[C@@H]3c4ccc(O)cc4CC[C@H]3[C@@H]1CC[C@@H]2NS(=O)(=O)c1ccc(-c2ccccc2)cc1,GI50,MDA-MB-468 breast,2.96 µM
same,TGI,MDA-MB-468 breast,38.8 µM
CC(C)(C)c1cc(C(=O)Nc2cc3ccccc3cc2C(=O)NCCN)cc(C(C)(C)C)c1,GI50,MDA-MB-468 breast,0.347 µM
same,TGI,MDA-MB-468 breast,0.989 µM
COc1cc(OC)cc(N2CCN(C(=O)Nc3nc4cc(F)ccc4nc3OC)CC2)c1,GI50,MDA-MB-468 breast,0.0283 µM
same,TGI,MDA-MB-468 breast,65.1 µM
COC(=O)Nc1nc2ccc(Sc3ccc(NC(=O)Nc4cc(C(F)(F)F)ccc4F)cc3)cc2[nH]1,GI50,MDA-MB-468 breast,0.882 µM
same,TGI,MDA-MB-468 breast,4.75 µM
C#Cc1ccc(-n2c(/C=C/c3cc(OC)c(OC)c(OC)c3)nc3ncccc3c2=O)cc1,GI50,MDA-MB-468 breast,2.83 µM
same,TGI,MDA-MB-468 breast,> 100 µM
CCOc1cccnc1/C=N/NC(N)=S,GI50,MDA-MB-468 breast,2.54 µM
same,TGI,MDA-MB-468 breast,13.3 µM
CC(C)(C)c1ccc(S(=O)(=O)N[C@H]2CC[C@H]3[C@@H]4CCc5cc(O)ccc5[C@H]4CC[C@]23C)cc1,GI50,MDA-MB-468 breast,2.74 µM
same,TGI,MDA-MB-468 breast,9.6 µM
C#Cc1cccc(Nc2ncnc3ccc(-c4cncc(NS(C)(=O)=O)c4)cc23)c1,GI50,MDA-MB-468 breast,0.208 µM
same,TGI,MDA-MB-468 breast,0.731 µM
CC(=O)N[C@@H]1CCC[C@H](C(=O)Nc2cc(-c3cnn4c3CC(C)(C)C4)c(Cl)cn2)C1,GI50,MDA-MB-468 breast,< 0.01 µM
same,TGI,MDA-MB-468 breast,0.049 µM
COc1ccc(N=C2NN=C(c3c[nH]c4ccccc34)CS2)cc1OC,GI50,MDA-MB-468 breast,14.6 µM
same,TGI,MDA-MB-468 breast,> 60.5 µM
O=c1[nH]c2cc(O)ccc2n2cc3c(F)cccc3c12,GI50,MDA-MB-468 breast,1.36 µM
same,TGI,MDA-MB-468 breast,> 100 µM
Cn1cc(-c2cc(N)n3nc(-c4c[nH]c5ccccc45)cc3n2)c2cc(Br)ccc21,GI50,MDA-MB-435,2.07 µM
same,TGI,MDA-MB-435,4.65 µM
same,GI50,T-47D breast,1.97 µM
same,TGI,T-47D breast,4.72 µM
same,GI50,SK-OV-3 ovarian,6.31 µM
same,TGI,SK-OV-3 ovarian,> 100 µM
same,GI50,M14 melanoma,1.79 µM
same,TGI,M14 melanoma,4.09 µM
same,GI50,SK-MEL-28 melanoma,1.85 µM
same,TGI,SK-MEL-28 melanoma,3.52 µM
same,GI50,786-0 renal,1.88 µM
same,TGI,786-0 renal,4.1 µM
same,GI50,CAKI-1 renal,1.58 µM
same,TGI,CAKI-1 renal,3.16 µM
same,GI50,BT-549 breast,14.1 µM
same,TGI,BT-549 breast,44.6 µM
same,GI50,A549 NSCLC,1.91 µM
same,TGI,A549 NSCLC,5.18 µM
same,GI50,NCI-H226 lung,4.76 µM
same,TGI,NCI-H226 lung,42.9 µM
same,GI50,TK-10 renal,2.08 µM
same,TGI,TK-10 renal,5.53 µM
same,GI50,RPMI-8226 leukemia,2.98 µM
same,TGI,RPMI-8226 leukemia,9.57 µM
same,GI50,NCI/ADR-RES ovarian,2.22 µM
same,TGI,NCI/ADR-RES ovarian,5.09 µM
same,GI50,UACC-257 melanoma,1.95 µM
same,TGI,UACC-257 melanoma,4.31 µM
same,GI50,HOP-92 NSCLC,2.25 µM
same,TGI,HOP-92 NSCLC,5.54 µM
same,GI50,A498 renal,2.06 µM
same,TGI,A498 renal,7.26 µM
same,GI50,SNB-19 CNS,2.02 µM
same,TGI,SNB-19 CNS,4.39 µM
same,GI50,NCI-H522 lung,1.65 µM
same,TGI,NCI-H522 lung,3.34 µM
same,GI50,HT29 colon,1.77 µM
same,TGI,HT29 colon,3.62 µM
same,GI50,SF-268 CNS,2.13 µM
same,TGI,SF-268 CNS,5.87 µM
same,GI50,UACC-62 melanoma,1.65 µM
same,TGI,UACC-62 melanoma,3.28 µM
same,GI50,OVCAR-8 ovarian,2.84 µM
same,TGI,OVCAR-8 ovarian,8.51 µM
same,GI50,SR leukemia,5.95 µM
same,TGI,SR leukemia,> 100 µM
same,GI50,SK-MEL-2 melanoma,1.88 µM
same,TGI,SK-MEL-2 melanoma,4.27 µM
same,GI50,RXF 393 renal,1.85 µM
same,TGI,RXF 393 renal,4.65 µM
same,GI50,SNB-75 CNS,2.05 µM
same,TGI,SNB-75 CNS,9.74 µM
same,GI50,MDA-MB-468 breast,1.56 µM
same,TGI,MDA-MB-468 breast,3.04 µM
same,GI50,MDA-MB-231 breast,1.91 µM
same,TGI,MDA-MB-231 breast,3.5 µM
same,GI50,K-562 leukemia,3.44 µM
same,TGI,K-562 leukemia,> 100 µM
same,GI50,SK-MEL-5 melanoma,1.92 µM
same,TGI,SK-MEL-5 melanoma,3.82 µM
same,GI50,HL-60(TB) leukemia,2.86 µM
same,TGI,HL-60(TB) leukemia,9.81 µM
same,GI50,CCRF-CEM leukemia,2.24 µM
same,TGI,CCRF-CEM leukemia,6.75 µM
same,GI50,OVCAR-4 ovarian,3.06 µM
same,TGI,OVCAR-4 ovarian,11.2 µM
same,GI50,MALME-3M melanoma,1.87 µM
same,TGI,MALME-3M melanoma,3.31 µM
same,GI50,SN12C renal,1.91 µM
same,TGI,SN12C renal,3.87 µM
same,GI50,HCC-2998 colon,1.78 µM
same,TGI,HCC-2998 colon,3.39 µM
same,GI50,DU-145 prostate,3.33 µM
same,TGI,DU-145 prostate,12.3 µM
same,GI50,KM12 colon,1.94 µM
same,TGI,KM12 colon,4.09 µM
same,GI50,OVCAR-5 ovarian,1.91 µM
same,TGI,OVCAR-5 ovarian,3.93 µM
same,GI50,PC-3 prostate,2.09 µM
same,TGI,PC-3 prostate,5.36 µM
same,GI50,EKVX NSCLC,1.83 µM
same,TGI,EKVX NSCLC,4.37 µM
same,GI50,SF-539 CNS,1.75 µM
same,TGI,SF-539 CNS,3.22 µM
same,GI50,HS 578T breast,2.56 µM
same,TGI,HS 578T breast,9.25 µM
same,GI50,UO-31 renal,1.71 µM
same,TGI,UO-31 renal,3.53 µM
same,GI50,IGROV1 ovarian,1.99 µM
same,TGI,IGROV1 ovarian,4.52 µM
